Experimental data as given in US20090312349A1, “ANTI-INFLAMMATORY MEDICAMENTS” (priority 2004, published 2009).
pIC50: −log10 of the molar value. Like-named read-outs stand apart in the source and are kept apart here.

Legend:
Assay type in all cases: biochemical
KDR kinase = KDR kinase (Homo sapiens, UniProt P35968, DEL940-989/E990V); experiment: KDR kinase assay K1
Method: (§1) IC50 values were calculated from a series of percent inhibition values determined at a range of inhibitor concentrations using software routines as implemented in the GraphPad Prism software package.

[1] = target: phosphorylated p-38-alpha kinase (Homo sapiens, UniProt Q16539); experiment: P-38 alpha kinase assay P1; conditions: Method P1; 2 h pre-incubation before ATP
Chain of phosphorylated p-38-alpha kinase (Q16539 1-360 isoform Q16539-2): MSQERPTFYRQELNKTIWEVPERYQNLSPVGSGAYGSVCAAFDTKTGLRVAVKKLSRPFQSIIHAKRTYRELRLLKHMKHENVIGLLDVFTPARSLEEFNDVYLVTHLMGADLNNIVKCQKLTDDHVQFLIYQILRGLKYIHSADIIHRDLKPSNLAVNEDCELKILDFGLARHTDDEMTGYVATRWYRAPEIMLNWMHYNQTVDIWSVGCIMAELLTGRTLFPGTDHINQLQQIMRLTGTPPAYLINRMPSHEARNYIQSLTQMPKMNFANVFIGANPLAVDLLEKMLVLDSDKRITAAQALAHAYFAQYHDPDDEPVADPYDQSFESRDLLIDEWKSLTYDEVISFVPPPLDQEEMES

B-Raf(V599E) kinase = B-Raf(V599E) kinase (Homo sapiens, UniProt P15056, V600E); experiment: B-Raf(V599E) kinase assay B1; conditions: for inhibition at 1 µM: read-out: Results, % @ concentration μM; for IC50: Method B1, construct 1
Chain of B-Raf(V599E) kinase (P15056 with tags, fused parts or gaps V600E): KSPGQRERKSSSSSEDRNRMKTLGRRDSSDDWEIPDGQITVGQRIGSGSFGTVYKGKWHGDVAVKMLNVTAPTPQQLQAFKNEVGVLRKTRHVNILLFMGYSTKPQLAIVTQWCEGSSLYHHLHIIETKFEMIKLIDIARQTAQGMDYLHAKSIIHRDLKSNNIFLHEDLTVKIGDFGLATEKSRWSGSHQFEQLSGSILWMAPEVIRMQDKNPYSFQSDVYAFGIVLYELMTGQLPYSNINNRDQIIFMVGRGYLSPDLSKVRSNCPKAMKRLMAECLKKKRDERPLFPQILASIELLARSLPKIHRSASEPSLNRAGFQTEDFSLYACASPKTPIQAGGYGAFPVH
Method: The test compounds were incubated with the reaction mixture at 30° C. for 2 h. […] The reaction rate was calculated using the 1.5 h to 2.5 h time frame. […] IC50 values were calculated from a series of percent inhibition values determined at a range of inhibitor concentrations using software routines as implemented in the GraphPad Prism software package.

Abl kinase = target: T1, Abl kinase (Homo sapiens, UniProt P00519); experiment: Abl kinase assay A1; conditions: for IC50: read-out: Results, μM (IC50)
T1 sequence (P00519 229-512): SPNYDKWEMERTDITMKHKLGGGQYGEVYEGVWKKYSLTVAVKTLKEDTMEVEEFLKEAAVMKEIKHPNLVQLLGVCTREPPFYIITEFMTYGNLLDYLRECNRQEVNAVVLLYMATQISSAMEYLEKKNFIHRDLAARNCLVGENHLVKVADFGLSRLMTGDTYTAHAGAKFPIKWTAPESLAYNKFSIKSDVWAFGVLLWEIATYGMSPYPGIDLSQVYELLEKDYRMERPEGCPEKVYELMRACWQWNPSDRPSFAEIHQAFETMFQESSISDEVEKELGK
Method: as §1

[2] = target: T2, phospho p-38 alpha kinase (Homo sapiens, UniProt Q16539); experiment: P-38 alpha kinase assay (spectrophotometric, pyruvate kinase/lactate dehydrogenase coupled); conditions: Table 5; for IC50: assay not named, read-out: uM
T2 construct: purchased Panvera
T2 sequence (Q16539 whole entry): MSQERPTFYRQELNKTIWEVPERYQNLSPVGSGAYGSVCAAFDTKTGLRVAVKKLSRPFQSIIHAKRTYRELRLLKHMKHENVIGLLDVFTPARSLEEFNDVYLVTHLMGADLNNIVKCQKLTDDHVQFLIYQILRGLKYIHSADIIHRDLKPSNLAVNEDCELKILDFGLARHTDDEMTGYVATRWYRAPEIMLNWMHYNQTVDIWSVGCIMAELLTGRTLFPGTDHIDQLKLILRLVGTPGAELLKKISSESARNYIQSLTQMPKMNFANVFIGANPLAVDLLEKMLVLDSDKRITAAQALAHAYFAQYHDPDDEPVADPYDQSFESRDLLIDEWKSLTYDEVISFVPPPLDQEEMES

[3] = read-out: Results, % @ concentration μM, Method K1, @ 10 μM
[4] = read-out: Results, % @ concentration μM, Method A1, @ 10 μM
[5] = read-out: Results, % @ concentration μM

Chain of KDR kinase (P35968 with tags, fused parts or gaps DEL940-989/E990V): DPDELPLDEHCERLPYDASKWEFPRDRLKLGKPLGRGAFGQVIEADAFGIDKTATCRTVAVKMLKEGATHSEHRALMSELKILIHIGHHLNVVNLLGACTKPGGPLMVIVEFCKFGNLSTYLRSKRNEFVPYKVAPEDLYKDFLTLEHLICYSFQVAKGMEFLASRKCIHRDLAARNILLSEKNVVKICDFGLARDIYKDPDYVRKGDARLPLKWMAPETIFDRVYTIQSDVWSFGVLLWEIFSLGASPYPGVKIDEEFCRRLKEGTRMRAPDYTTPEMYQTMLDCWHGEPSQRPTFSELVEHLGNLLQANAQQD

| Structure (SMILES) | inhibition at 10 µM (KDR kinase; [3]) [%] | IC50 [1] [µM] | inhibition at 10 µM (Abl kinase; [4]) [%] | IC50 [2] [µM] | IC50 (B-Raf(V599E) kinase) [µM] | other results |
| --- | --- | --- | --- | --- | --- | --- |
| O=C(O)Cc1cccc(-n2nc(-c3ccccc3F)cc2NC(=O)Nc2cccc(Cl)c2Cl)c1 [Example 433, 2-(3-(5-(3-(2,3-dichlorophenyl)ureido)-3-(2-fluorophenyl)-1H-pyrazol-1-yl)phenyl)acetic acid] | 63 | 0.007 | 39 | – | – | inhibition at 1 µM (B-Raf(V599E) kinase): 37% |
| O=C(O)Cc1cccc(-n2nc(C3CCCC3)cc2NC(=O)Nc2cccc(Cl)c2Cl)c1 [Example 434, 2-(3-(3-cyclopentyl-5-(3-(2,3-dichlorophenyl)ureido)-1H-pyrazol-1-yl)phenyl)acetic acid] | – | 0.004 | – | 1.9 | 0.006 | IC50 (KDR kinase; Method K1): 2.9 µM; IC50 (Abl kinase; Method A1): 3.9 µM |
| CCOC(=O)Cc1ccc(-n2nc(C3CCCC3)cc2NC(=O)Nc2cccc(Cl)c2Cl)cc1 [Example 437, ethyl 2-(4-(3-cyclopentyl-5-(3-(2,3-dichlorophenyl)ureido)-1H-pyrazol-1-yl)phenyl)acetate] | 32 | – | 21 | – | 0.16 | – |
| O=C(O)Cc1ccc(-n2nc(C3CCCC3)cc2NC(=O)Nc2cccc(Cl)c2Cl)cc1 [Example 441, 2-(4-(3-cyclopentyl-5-(3-(2,3-dichlorophenyl)ureido)-1H-pyrazol-1-yl)phenyl)acetic acid] | 62 | 0.005 | 44 | – | 0.037 | – |
| COC(=O)Cc1ccc(-n2nc(-c3ccsc3)cc2NC(=O)Nc2cccc(Cl)c2Cl)cc1 [Example 445, methyl 2-(4-(5-(3-(2,3-dichlorophenyl)ureido)-3-(thiophen-3-yl)-1H-pyrazol-1-yl)phenyl)acetate] | – | – | 30 | – | – | inhibition at 1 µM (B-Raf(V599E) kinase): 39% |
| NC(=O)Cc1cccc(-n2nc(-c3ccsc3)cc2NC(=O)Nc2cccc(Cl)c2Cl)c1 [Example 452, 1-(1-(3-(2-amino-2-oxoethyl)phenyl)-3-(thiophen-3-yl)-1H-pyrazol-5-yl)-3-(2,3-dichlorophenyl)urea] | – | 0.006 | 37 | – | – | inhibition at 1 µM (B-Raf(V599E) kinase): 45% |
| O=C(Nc1cccc(Cl)c1Cl)Nc1cc(-c2cccs2)nn1-c1cccc(CC(=O)N2CC[C@H](O)C2)c1 [Example 463, 1-(2,3-dichlorophenyl)-3-(1-(3-(2-((S)-3-hydroxypyrrolidin-1-yl)-2-oxoethyl)phenyl)-3-(thiophen-2-yl)-1H-pyrazol-5-yl)urea] | 47 | 0.025 | 44 | 0.056 | – | inhibition at 1 µM (B-Raf(V599E) kinase): 23% |
| CN(C)[C@@H]1CCN(C(=O)Cc2cccc(-n3nc(C(C)(C)C)cc3NC(=O)Nc3cccc(Cl)c3Cl)c2)C1 [Example 464, 1-(3-tert-butyl-1-(3-(2-((R)-3-(dimethylamino)pyrrolidin-1-yl)-2-oxoethyl)phenyl)-1H-pyrazol-5-yl)-3-(2,3-dichlorophenyl)urea] | – | – | – | – | – | inhibition at 10 µM (KDR kinase; [5]): 85%; inhibition at 10 µM (Abl kinase; [5]): 82% |
| CN(C)[C@H]1CCN(C(=O)Cc2cccc(-n3nc(C(C)(C)C)cc3NC(=O)Nc3cccc(Cl)c3Cl)c2)C1 [Example 465, 1-(3-tert-butyl-1-(3-(2-((S)-3-(dimethylamino)pyrrolidin-1-yl)-2-oxoethyl)phenyl)-1H-pyrazol-5-yl)-3-(2,3-dichlorophenyl)urea] | – | – | – | – | – | inhibition at 10 µM (KDR kinase; [5]): 91%; pIC50 (Abl kinase): 5.92 |
| NC(=O)Cc1ccc(-n2nc(-c3ccsc3)cc2NC(=O)Nc2cccc(Cl)c2Cl)cc1 [Example 469, 1-(1-(4-(2-amino-2-oxoethyl)phenyl)-3-(thiophen-3-yl)-1H-pyrazol-5-yl)-3-(2,3-dichlorophenyl)urea] | – | 0.009 | 22 | – | – | inhibition at 1 µM (B-Raf(V599E) kinase): 43% |
| CC(C)(C)c1cc(NC(=O)Nc2cccc(Cl)c2Cl)n(-c2ccc(CC(=O)N3CCCC(C(=O)O)C3)cc2)n1 (centres unmarked) [Example 476, 1-(2-(4-(3-tert-butyl-5-(3-(2,3-dichlorophenyl)ureido)-1H-pyrazol-1-yl)phenyl)acetyl)piperidine-3-carboxylic acid] | – | 0.006 | – | 0.024 | 0.041 | IC50 (Abl kinase; Method A1): 8.4 µM |
| CC(C)(C)c1cc(NC(=O)Nc2cccc(Cl)c2Cl)n(-c2ccc(CC(=O)N3CC[C@H](O)C3)cc2)n1 [Example 478, (S)-1-(3-tert-butyl-1-(4-(2-(3-hydroxypyrrolidin-1-yl)-2-oxoethyl)phenyl)-1H-pyrazol-5-yl)-3-(2,3-dichlorophenyl)urea] | 99 | 0.006 | 91 | – | 0.028 | – |
| CN(C)[C@@H]1CCN(C(=O)Cc2ccc(-n3nc(C(C)(C)C)cc3NC(=O)Nc3cccc(Cl)c3Cl)cc2)C1 [Example 480, (R)-1-(3-tert-butyl-1-(4-(2-(3-(dimethylamino)pyrrolidin-1-yl)-2-oxoethyl)phenyl)-1H-pyrazol-5-yl)-3-(2,3-dichlorophenyl)urea] | 92 | – | 94 | – | 0.029 | – |
| CN(C)[C@@H]1CCN(C(=O)Cc2ccc(-n3nc(C(C)(C)C)cc3NC(=O)Nc3cccc(Cl)c3Cl)cc2)C1 [Example 481, (R)-1-(3-tert-butyl-1-(4-(2-(3-(dimethylamino)pyrrolidin-1-yl)-2-oxoethyl)phenyl)-1H-pyrazol-5-yl)-3-(2,3-dichlorophenyl)urea] | – | – | – | – | 0.041 | Results, % @ concentration μM (KDR kinase; Method K1, @ 10 μM): 102% @10; Results, % @ concentration μM (Abl kinase; Method A1, @ 10 μM): 93% @10 |
| CC(C)(C)c1cc(NC(=O)Nc2cccc(Cl)c2Cl)n(-c2cccc(CN3C(=O)NC(=O)C3=O)c2)n1 [Example 482, 1-(3-tert-butyl-1-(3-((2,4,5-trioxoimidazolidin-1-yl)methyl)phenyl)-1H-pyrazol-5-yl)-3-(2,3-dichlorophenyl)urea] | – | – | – | 0.084 | 0.0038 | IC50 (KDR kinase; Method K1): 1.4 µM; IC50 (Abl kinase; Method A1): 3.2 µM |
| O=C(Nc1ccc(F)c(F)c1F)Nc1cc(-c2cccs2)nn1-c1cccc(CO)c1 [Example 493, 1-(1-(3-(hydroxymethyl)phenyl)-3-(thiophen-2-yl)-1H-pyrazol-5-yl)-3-(2,3,4-trifluorophenyl)urea] | 82 | – | – | – | – | % @ concentration, uM ([2]; @ 1 uM): 36%; % @ concentration, uM ([2]; @ 10 uM): 73%; inhibition at 1 µM (Abl kinase; read-out: Results, % @ concentration μM, Method A1, @ 1 μM): 17% |
| CC(C)(C)c1cc(NC(=O)Nc2cccc(F)c2F)n(-c2cccc(CC(N)=O)c2)n1 [Example 495, 1-(1-(3-(2-amino-2-oxoethyl)phenyl)-3-tert-butyl-1H-pyrazol-5-yl)-3-(2,3-difluorophenyl)urea] | – | 0.038 | – | 0.25 | 0.009 | IC50 (Abl kinase; Method A1): 7.6 µM |
| CC(C)(C)c1cc(NC(=O)Nc2ccc(F)cc2F)n(-c2cccc(CC(N)=O)c2)n1 [Example 496, 1-(1-(3-(2-amino-2-oxoethyl)phenyl)-3-tert-butyl-1H-pyrazol-5-yl)-3-(2,4-difluorophenyl)urea] | – | – | 66 | – | 0.01 | IC50 (KDR kinase; Method K1): 2.4 µM |
| CC(C)(C)c1cc(NC(=O)Nc2ccc(F)cc2F)n(-c2ccc(CC(=O)O)cc2)n1 [Example 497, 2-(4-(3-tert-butyl-5-(3-(2,4-difluorophenyl)ureido)-1H-pyrazol-1-yl)phenyl)acetic acid] | 43 | – | 30 | – | 0.045 | – |
| NC(=O)Cc1cccc(-n2nc(-c3ccccc3)cc2NC(=O)Nc2cccc(Oc3cccnc3)c2)c1 [Example 501, 1-(1-(3-(2-amino-2-oxoethyl)phenyl)-3-phenyl-1H-pyrazol-5-yl)-3-(3-(pyridin-3-yloxy)phenyl)urea] | – | 0.076 | – | – | – | IC50 (KDR kinase; Method K1): 1.6 µM; IC50 (Abl kinase; Method A1): 2.5 µM |
| CC(C)(C)c1cc(NC(=O)Nc2cccc(Oc3cnccn3)c2)n(-c2cccc(CC(N)=O)c2)n1 [Example 504, 1-(1-(3-(2-amino-2-oxoethyl)phenyl)-3-tert-butyl-1H-pyrazol-5-yl)-3-(3-(pyrazin-2-yloxy)phenyl)urea] | – | 0.082 | – | – | 0.043 | IC50 (KDR kinase; Method K1): 0.049 µM; pIC50 (Abl kinase): 7.20 |
| CC(C)(C)c1cc(NC(=O)Nc2cccc(-c3cccnc3)c2)n(-c2cccc(CC(N)=O)c2)n1 [Example 507, 1-(1-(3-(2-amino-2-oxoethyl)phenyl)-3-tert-butyl-1H-pyrazol-5-yl)-3-(3-(pyridin-3-yl)phenyl)urea] | – | 0.18 | – | 0.007 | 0.035 | IC50 (Abl kinase; Method A1): 23.3 µM |
| CC(C)(C)c1cc(NC(=O)Nc2cccc(-c3ccc(N)nc3)c2)n(-c2cccc(CC(N)=O)c2)n1 [Example 508, 1-(1-(3-(2-amino-2-oxoethyl)phenyl)-3-tert-butyl-1H-pyrazol-5-yl)-3-(3-(6-aminopyridin-3-yl)phenyl)urea] | – | 0.33 | 32 | 0.052 | 0.02 | – |
